Among the data in the NIST ThermoML archive (doi:10.1016/j.jct.2017.05.010) are speed of sound values, retold here.

Numbers after ± are expanded uncertainties.

For the data set the following is noted: 101.33 kPa, Liquid, Single path-length method.

As for `CCCCOCCCN` [3-butoxy-1-propanamine], the speed of sound (283.15 K) came to 1387.3 ± 1.7 m/s; the speed of sound (288.15 K) is given as 1367.3 ± 1.7 m/s; the speed of sound (293.15 K) came to 1346.7 ± 1.7 m/s; the speed of sound (298.15 K) was found to be 1326.4 ± 1.7 m/s; the speed of sound (303.15 K) amounted to 1306.7 ± 1.7 m/s.
